Publication PMC8575619, “Cytotoxic and Antifungal Amides Derived from Ferulic Acid: Molecular Docking and Mechanism of Action” (BioMed Research International, 2021)
In brackets after ≈: the same amount, converted by molar mass. Several values for one entry are separate records, joined by “and”; a condition that tells them apart may be missing. Identical values can stand only once. Like-named read-outs stand apart in the source and are kept apart here.

Assays:
C. albicans CBS 562 = experiment: Sorbitol assay (cell wall mechanism), microdilution; type: cell-based, Candida albicans; conditions: for MIC: Candida albicans
Protocol: (1) Sorbitol Assay. The microdilution technique was performed in the presence of sorbitol (D-sorbitol, anhydrous) (INLAB laboratory), to determine the mode of action of the compounds on the cell wall of C. albicans CBS 562. For this test, the inoculum was prepared with sorbitol to a final concentration of 0.8 M. The plates were incubated at 35 ± 2°C, and readings were taken 24 h and 48 h after incubation. Caspofungin was used as positive control at an initial concentration of 5 mg/mL [68–70].

HCT116 = experiment: Cytotoxicity assay, alamar blue test; type: cell-based, human; conditions: value (95% confidence interval)
Protocol: (§1) HepG2 cells (human hepatocellular carcinoma), HCT116 (human colon carcinoma), HL-60 (human promyelocytic leukemia), and MRC5 (human lung fibroblast) obtained from the ATCC (Manassas, VA, USA) were used. Cells were cultured in cell culture bottles (75 cm 3, 250 mL volume), and media used were RPMI 1640 and supplemented with 10% fetal bovine serum. Cells were maintained in incubators with 5% CO2 atmosphere at 37°C. Cellular growth was monitored daily with the use of an inversion microscope. The medium was changed whenever cell growth reached the necessary confluence for nutrient renewal. For the maintenance of adhered cells, trypsin (0.25%) was used for the cells to detach from the walls of the bottles.
(§2) To assess the cytotoxicity of the substances, the alamar blue test was performed after 72 h of exposure with the test substances. Alamar blue, known as resazurin [62], is a fluorescent/colorimetric indicator with redox properties. The reduction in alamar blue reflects cell proliferation. This was initially used to indicate cell growth and/or viability in monitoring lymphocyte proliferation and currently has several applications. Initially, cells were plated in 96-well plates (100 μL/well of a solution of 0.3 × 10^6 cells/mL for cells in suspension and 0.7 × 10^5 cells/mL for adhered cells). After 24 h of incubation, the test substances dissolved in DMSO were added to each well and incubated for 72 h. Doxorubicin was used as a positive control. The negative control received the same amount of DMSO. Four hours before the end of the incubation period, 20 μL of the stock solution (0.312 mg/mL) of alamar blue (resazurin) was added to each well. Absorbances were measured at wavelengths of 570 nm (reduced) and 600 nm (oxidized) using a plate reader.

HL-60 = experiment: Cytotoxicity assay, alamar blue test; type: cell-based, human; conditions: value (95% confidence interval); for IC50: read-out: IC50 HL60
Protocol: as §1, §2

HepG2 cells = experiment: Cytotoxicity assay, alamar blue test; type: cell-based, human; conditions: value (95% confidence interval)
Protocol: as §1, §2

MRC5 = experiment: Cytotoxicity assay, alamar blue test (healthy cell line); type: cell-based, human; conditions: value (95% confidence interval)
Protocol: as §1, §2

Candida albicans CBS 562 = experiment: Minimum fungicide concentration (MFC); type: cell-based; conditions: ≥ 4 fungistatic or <4 fungicide
Protocol: (§3) Antifungal activity evaluations were performed using references strains of Candida spp., obtained from the Centraalbureau voor Schimmelcultures (CBS, Ultrecht, Netherlands): Candida albicans CBS 562, Candida tropicalis CBS 94, and Candida krusei CBS 573. Nystatin, Tween 80%, DMSO, caspofungin diacetate, and ergosterol were obtained from Sigma-Aldrich® (St. Louis, MO, EUA) and sorbitol (D-sorbitol anhydrous) from INLAB® (São Paulo, Brazil). All assays were performed in triplicate in three independent experiments. The culture medium used for maintenance of the microorganisms was Agar Sabouraud Dextrose (ASD). Inoculants were adjusted to a final concentration of 2.5 × 10^3 CFU/mL (Clinical and Laboratory Standards Institute, 2002). […]
(§4) The minimum fungicide concentration (MFC) of the compounds was obtained after the interpretation of the MIC. Three (3) aliquots of 30 μL of supernatant were removed from the wells (where complete inhibition of fungal growth was analyzed) and placed in Petri dishes containing 15 mL of agar Sabouraud dextrose. The plates were incubated at 35 ± 2°C for 24 h for visual counting of colony forming units. To determine whether the compounds had fungistatic (MFC/MIC ≥ 4) or fungicidal (MFC/MIC < 4) activity, the MFC/MIC ratio was calculated.

Candida krusei CBS 573 = experiment: Minimum fungicide concentration (MFC); type: cell-based; conditions: ≥ 4 fungistatic or <4 fungicide
Protocol: as §3, §4

[1] = tested on: Candida tropicalis CBS 94; experiment: Minimum fungicide concentration (MFC); type: cell-based; conditions: ≥ 4 fungistatic or <4 fungicide
Protocol: as §3, §4

[2] = tested on: Candida strains (Candida albicans, C. tropicalis, and C. krusei); experiment: Antifungal evaluation (MIC/MFC), statements for all Candida strains; type: cell-based, Candida spp.
Protocol: The antifungal activity (Table 2) of the ten amides was assessed via the minimum inhibitory concentration (MIC) which was determined using the microdilution methods against three species of Candida strains (Candida albicans, C. tropicalis, and C. krusei).
as §3
MIC was determined by the microdilution technique, as previously described by the adapted Clinical and Laboratory Standards Institute (CLSI, 2002) method. The compounds were subjected to the microdilution technique in 96-well plates, with U bottom. The samples were dissolved with DMSO and sterile distilled water (up to 1.0 mL). Through serial dilutions, concentrations of the evaluated compounds ranging from 1000 μg/mL to 7.8 μg/mL. The culture sterility medium, the evaluated substances, and the microbial growth were carried out in parallel. The plates were closed and subjected to a temperature of 35 ± 2°C for 24 h. 1% TTC (2,3,5-triphenyl tetrazolium chloride, Sigma-Aldrich®, St. Louis, MO, EUA) was added to each well to confirm the presence of viable microorganisms. MIC was defined as the lowest concentration of the test substance that inhibits visible microbial growth.
The minimum fungicide concentration (MFC) of the compounds was obtained after the interpretation of the MIC. Three (3) aliquots of 30 μL of supernatant were removed from the wells (where complete inhibition of fungal growth was analyzed) and placed in Petri dishes containing 15 mL of agar Sabouraud dextrose. The plates were incubated at 35 ± 2°C for 24 h for visual counting of colony forming units.

C. albicans = experiment: Ergosterol test (plasma membrane mechanism), microdilution; type: cell-based, Candida albicans; conditions: for MIC Without ergosterol: absence of ergosterol
Protocol: (2) Ergosterol Test. The test of the compounds was performed using the microdilution technique, as previously described, in the presence of exogenous ergosterol at 400 μg/mL. Nystatin was used as positive control. The plates were incubated at 35 ± 2°C, and readings were taken at 24 and 48 h.

| Compound | IC50 (HCT116; Homo sapiens, HCT-116, 72 h) | IC50 (HL-60; Homo sapiens, HL-60, 72 h) | IC50 (HepG2 cells; Homo sapiens, HepG2, 72 h) | IC50 (MRC5; Homo sapiens, MRC5, 72 h) | MIC/MFC reason C. albicans CBS 562 (Candida albicans CBS 562) | MIC/MFC reason C. krusei CBS 573 (Candida krusei CBS 573) | MIC/MFC reason C. tropicalis CBS 94 [1] | IC50 (HCT116; 72 h) [µM] | IC50 HCT116 (HCT116; 72 h) | IC50 (HL-60; 72 h) [µM] | IC50 (HepG2 cells; 72 h) [µM] | IC50 HEPG2 (HepG2 cells; 72 h) | IC50 (MRC5; 72 h) [µM] | IC50 MRC5 (MRC5; 72 h) | IC50 HL60 (HL-60; 72 h) | also measured |
| --- | --- | --- | --- | --- | --- | --- | --- | --- | --- | --- | --- | --- | --- | --- | --- | --- |
| CC[C@H](C)C[C@H](C)CCCCCCCCC(=O)N[C@H]1C[C@@H](O)[C@@H](NCCN)NC(=O)[C@@H]2[C@@H](O)CCN2C(=O)[C@H]([C@H](O)CCN)NC(=O)[C@H]([C@H](O)[C@@H](O)c2ccc(O)cc2)NC(=O)[C@@H]2C[C@@H](O)CN2C(=O)[C@H]([C@@H](C)O)NC1=O [Caspofungin, reference compound] | – | – | – | – | – | – | – | – | – | – | – | – | – | – | – | MIC (C. albicans CBS 562; CBS562, read-out: MIC With sorbitol): 1 µg/mL (≈ 0.915 µM); MIC (C. albicans CBS 562; CBS562, read-out: MIC Without sorbitol): 0.015 µg/mL (≈ 0.0137 µM) |
| COc1cc(/C=C/C(=O)NCC(C)C)ccc1O [Compound 2, (E)-3-(4-hydroxy-3-methoxyphenyl)-N-isobutylacrylamide] | > 25 µg/mL and > 100 µM | > 25 µg/mL and > 100 µM | > 25 µg/mL and > 100 µM | > 25 µg/mL and > 100 µM | – | – | – | – | – | – | – | – | – | – | – | melting point: 75 to 81 °C |
| COc1ccc(/C=C/C(=O)N2CCCC2)cc1O [Compound 3, (E)-3-(3-hydroxy-4-methoxyphenyl)-1-(pyrrolidin-1-yl)prop-2-en-1-one] | > 25 µg/mL and > 95.7 µM | > 25 µg/mL and > 95.7 µM | > 25 µg/mL and > 95.7 µM | > 25 µg/mL and > 95.7 µM | – | – | – | – | – | – | – | – | – | – | – | melting point: 158 to 162 °C |
| COc1cccc2c1C(=O)c1c(O)c3c(c(O)c1C2=O)C[C@@](O)(C(=O)CO)C[C@@H]3O[C@H]1C[C@H](N)[C@H](O)[C@H](C)O1 [DOX, Doxorubicin, reference compound] | 0.02 µg/mL and 40 nM | 0.03 µg/mL and 60 nM | 0.01 µg/mL and 20 nM | 1 µg/mL and 1.84 µM | – | – | – | – | – | – | – | – | – | – | – | – |
| C[C@@H]1[C@H](O)[C@@H](C)/C=C/C=C/CC/C=C/C=C/C=C/C=C/C(O[C@H]2O[C@H](C)[C@@H](O)[C@H](N)[C@@H]2O)CC2O[C@](O)(CC(O)C(O)CCC(O)CC(O)CC(O)CC(=O)O[C@H]1C)CC(O)C2C(=O)O (stereo partly drawn) [Nystatin, reference compound] | – | – | – | – | 1 | 1 | 1 | – | – | – | – | – | – | – | – | MFC ([2]; stated for all Candida strains): 4.3 µM (≈ 3.98 µg/mL); MIC ([2]; stated for all Candida strains): 4.3 µM (≈ 3.98 µg/mL); MIC Without ergosterol (C. albicans): 3.75 µg/mL (≈ 4.05 µM); MIC With ergosterol (C. albicans; exogenous ergosterol at 400 μg/mL): 31.25 µg/mL (≈ 33.7 µM) |
| (E)-3-(3-hydroxy-4-methoxyphenyl)-N-(4-methoxybenzyl)acrylamide [Compound 8] | – | – | – | – | 1 | 1 | 1 | > 79.8 | >25 µg/mL | 70.3 | 64.7 | 20.27 (15.94–25.77) μg/mL | 53.2 | 16.69 (13.18–21.13) μg/mL | – | MIC ([2]; stated for all Candida strains): 1590 µM |
| (E)-3-(3-hydroxy-4-methoxyphenyl)-N-phenylacrylamide [Compound 5] | – | – | – | – | – | – | – | > 88.2 | >25 µg/mL | 50.4 | > 88.2 | >25 µg/mL | > 88.2 | >25 µg/mL | 14.28 (9.40–21.70) μg/mL | – |
| (E)-N-(3,4-dimethoxybenzyl)-3-(3-hydroxy-4-methoxyphenyl)acrylamide [Compound 10] | – | – | – | – | 1 | 1 | 1 | > 78.9 | >25 µg/mL | 36.5 | > 78.9 | >25 µg/mL | > 78.9 | >25 µg/mL | 12.51 (7.41–18.12) μg/mL | bioactivity category by MIC ([2]; Candida strains): good bioactivity (good bioactivity (MIC between 26 and 125 μg/mL)); MIC Without sorbitol (C. albicans CBS 562; C. albicans CBS 562, absence of sorbitol): 31.25 µg/mL; MIC With sorbitol (C. albicans CBS 562; C. albicans CBS 562, sorbitol 0.8 M): >1000 µg/mL; MIC Without ergosterol (C. albicans): 62.25 µg/mL |
| (E)-N-benzyl-3-(3-hydroxy-4-methoxyphenyl)acrylamide [Compound 6] | – | – | – | – | 1 | 1 | – | 70.3 | 18.93 (13.48–26.57) μg/mL | 64.9 | 107 | 20.82 (17.45–28.23) μg/mL | 76.5 | 20.59 (16.22–26.13) μg/mL | 17.49 (14.24–421.48) μg/mL | – |
| (E)-N-cyclohexyl-3-(3-hydroxy-4-methoxyphenyl)acrylamide [Compound 4] | – | – | – | – | – | – | – | > 90.8 | >25 µg/mL | 68.4 | > 90.8 | >25 µg/mL | > 90.8 | >25 µg/mL | 18.84 (11.58–27.65) μg/mL | – |
